Experimental data published in ChEMBL document CHEMBL3414502, “Identification of protein kinase CK2 inhibitors using solvent dipole ordering virtual screening” (Eur J Med Chem, 2015).
The source made the active and inactive calls. The calls are words filed in the database; no cut-off is given here.

Assays:
Casein kinase II = Casein kinase II (Homo sapiens, UniProt P19784+P67870+P68400); assay: Inhibition of CK2 kinase (unknown origin) using RRRDDDSDDD as substrate after 10 mins by topcount analysis in presence of [gamma-32P]ATP and 90 uM ATP; format: protein-complex assay
[1] = biological target: Casein kinase II (Homo sapiens) (UniProt P67870+P68400+P19784); assay: Competitive inhibition of CK2 kinase (unknown origin) by Lineweaver-Burk plot analysis in presence of ATP; format: protein-complex assay

Row | Compound | IC50 (Casein kinase II) [µM] | competitive inhibition (qualitative) [1]
1 | O=c1cc(-c2ccc(O)cc2)oc2c1ccc1ccccc12 | 9.7 | Active
2 | O=C(COC(=O)c1c[nH]c2ccccc12)Nc1ccc2[nH]c(=O)[nH]c2c1 | 28.5 | 
3 | Cc1cc(Br)c(N2C(=O)NC(=O)C(/C=N/c3ccc(C(=O)O)c(O)c3)C2=O)cc1C (stereo unspecified) | 28.6 | 
4 | O=C(O)COc1ccc2c(c1)O/C(=C\c1ccco1)C2=O | 11 | 
5 | O=C1OC(c2ccc(-c3ccccc3)cc2)=N/C1=C/c1ccc(C(=O)O)cc1 | 13.9 | 
6 | O=C1OC(c2sc3ccccc3c2Cl)=N/C1=C/c1ccc(C(=O)O)cc1 | 6 | 
7 | COc1ccc(/C=C2\Oc3cc(OCC(=O)O)ccc3C2=O)cc1OC | 6 | Active
8 | COc1cc(/C=C2/C(=O)NN(c3ccc(C)c(Cl)c3)C2=O)ccc1OCC(=O)O | 28.9 | 
9 | CCOc1ccc(C2=N/C(=C/c3ccc(C(=O)O)cc3)C(=O)O2)cc1 | 43 | 
10 | Nc1nnc(-c2ccc(C(=O)O)cc2)s1 | 27.4 | 
11 | COc1cccc(NC(=O)Nc2nnc(-c3ccc([N+](=O)[O-])cc3)s2)c1 | 7.6 | Active
12 | CCOc1cc(-c2nc3c(cnn3-c3ccccc3)c(=O)[nH]2)ccc1O | 39.9 | 
13 | O=c1oc2ccc([N+](=O)[O-])cc2cc1-c1csc(Nc2ccccc2)n1 | 8.6 | Active
14 | O=C(COC(=O)c1cc(Br)c(Br)s1)Nc1ccc2[nH]c(=O)[nH]c2c1 | 15.2 | 
15 | Nc1nc2ccc(NC(=S)NC(=O)c3cccs3)cc2s1 | 25.1 | 
16 | CC(C)(C)c1ccc(C2=N/C(=C/c3ccc(C(=O)O)cc3)C(=O)O2)cc1 | 13.2 | 
17 | O=c1[nH]n2c(=O)c3c([nH]c2c1/N=N/c1ccccc1Cl)CCC3 | 3.8 | Active
18 | O=c1[nH]c(-c2ccc(OCc3ccccc3)cc2)nc2c1cnn2-c1ccccc1 | 11.1 | 
19 | CCC(=O)Nc1nnc(-c2ccc([N+](=O)[O-])cc2)s1 | 27.9 | 
20 | NC(=O)c1nc(-c2ccncc2)nc2c1[nH]c(=O)n2-c1ccc2c(c1)OCO2 | 19.6 | 
21 | COc1ccc(-c2nc(C(N)=O)c3[nH]c(=O)n(-c4ccc(OC)c(OC)c4)c3n2)cc1 | 50 | 
22 | Cc1nn(C)cc1-c1cc(-c2nnc(Nc3ccn(Cc4ccccc4Cl)n3)s2)no1 | 3.7 | Active
23 | O=c1[nH]nc(-c2ccco2)c2cn(-c3cccc([N+](=O)[O-])c3)nc12 | 46.3 | 
24 | COc1ccc(-c2nc3c(sc4nc(C(F)F)cc(C)c43)c(=O)[nH]2)cc1Cn1cc([N+](=O)[O-])cn1 | 7.7 | Active
